Measurements: publication PMC7997369, “Assessment of the Multifunctional Behavior of Lupin Peptide P7 and Its Metabolite Using an Integrated Strategy” (Journal of Agricultural and Food Chemistry, 2020)
Several values for one entry are separate records, joined by “and”; a condition that tells them apart may be missing. Equal values may be shown once. No end group written: not given here.

What was measured:
[1] = biological target: DPP-IV (Homo sapiens, UniProt P27487); assay: Stability of P7 in the presence of DPP-IV; assay type: in vitro ADME; conditions: P7 (500 μM) with purified recombinant DPP-IV, Tris–HCl pH 8.0, 37 °C, 5, 30 and 120 min; LC–MS MRM
Method: The experiments were carried out in microcentrifuge tubes. Each reaction (100 μL) was prepared by adding the reagents in the following order: 1× DPP-IV assay buffer [20 mM Tris–HCl at pH 8.0 containing 100 mM NaCl and 1 mM ethylenediaminetetraacetic acid (EDTA)] (80 μL), P7 solution (10 μL, 500 μM), and finally DPP-IV (10 μL). Subsequently, the samples were mixed and kept at 37 °C in a thermoblock for 5, 30, and 120 min. At the end of the reactions, DPP-IV was inactivated by adding 200 μL of precooled acetonitrile (ACN) to each tube; then the samples were centrifuged for 10 min at 13300g at 4 °C; and the supernatant was collected. P7 and LTFPG were loaded onto the enrichment column (Zorbax 300SB-C18, 5 μm pore size) at a flow rate of 4 μL/min using isocratic 100% C solvent phase (99% water, 1% ACN, and 0.1% formic acid). After the cleanup, P7 and LTFPG were separated on a 150 mm × 75 μm analytical column (Zorbax300SB-C18, 5 μm pore size) at the constant flow rate of 300 nL/min. The LC solvent A was 95% water, 5% ACN, and 0.1% formic acid; solvent B was 5% water, 95% ACN, and 0.1% formic acid. The nanopump gradient program was as follows: 5% solvent B (0 min), 70% solvent B (0–8 min), and back to 5% solvent B in 2 min. Post-time was 10 min. The drying gas temperature was 300 °C, and the flow rate was 3 L/min (nitrogen). Data acquisition occurred in positive ionization mode. […]

[2] = tested on: differentiated Caco-2 cell monolayers; assay: Transepithelial transport and metabolism across differentiated Caco-2 cell monolayers; assay type: in vitro ADME, human; conditions: for detected at the AP side, P7 tested within a mixture: AP solutions of differentiated Caco-2 collected after 120 min; for amount in the BL compartment after 60 min, peptide alone / amount in the BL compartment after 60 min, P7 in the mixture / absorbed amount after 2 h, P7 in the mixture: HPLC–Chip–MS/MS; for rate of transport, peptide alone: AP pH 6.0 (MES), BL pH 7.4
Method: For differentiation, Caco-2 cells were seeded on polycarbonate filters with a 12 mm diameter and 0.4 μm pore diameter (Transwell, Corning, Inc., Lowell, MA, U.S.A.) at a 3.5 × 10^5 cells/cm^2 density in complete medium supplemented with 10% FBS in both AP and BL compartments for 2 days to allow for the formation of a confluent cell monolayer. Starting from day 3 after seeding, cells were transferred to FBS-free medium in both compartments, supplemented with ITS [final concentration of 10 mg/L insulin (I), 5.5 mg/L transferrin (T), and 6.7 μg/L sodium selenite (S), GIBCO–Invitrogen, San Giuliano Milanese, Italy] only in the BL compartment, and allowed to differentiate for 18–21 days with regular medium changes 3 times weekly.[12]
The transepithelial electrical resistance (TEER) of differentiated Caco-2 cells was measured at 37 °C using the voltmeter apparatus Millicell (Millipore Co., Billerica, MA, U.S.A.), immediately before and at the end of the transport experiments. In addition, at the end of transport experiments, cells were incubated from the AP side with 1 mM phenol red in phosphate-buffered saline (PBS) containing Ca^2+ (0.9 mM) and Mg^2+ (0.5 mM) for 1 h at 37 °C, to monitor the paracellular permeability of the cell monolayer. The BL solutions were then collected, and NaOH (70 μL, 0.1 N) was added before reading the absorbance at 560 nm by a microplate reader Synergy H1 from Biotek (Winooski, VT, U.S.A.). Phenol red passage was quantified using a standard phenol red curve. Only filters showing TEER values and phenol red passages similar to untreated control cells were considered for peptide transport analysis.
Prior to experiments, the cell monolayer integrity and differentiation were checked by TEER measurement as described in detail above. Cells were then washed twice, and peptide transportation by intestinal cells was assayed. Transport experiments were performed in transport buffer solution (137 mM NaCl, 5.36 mM KCl, 1.26 mM CaCl2, 1.1 mM MgCl2, and 5.5 mM glucose) following conditions previously described.[13] To reproduce the pH conditions existing in vivo in the small intestinal mucosa, AP solutions were maintained at pH 6.0 (buffered with 10 mM morpholinoethanesulfonic acid) and BL solutions were maintained at pH 7.4 (buffered with 10 mM N-2-hydroxyethylpiperazine-N-4-[…]). Prior to transport experiments, cells were washed twice with 500 μL of PBS containing Ca^2+ and Mg^2+. Peptide transportation by mature Caco-2 cells was assayed by loading the AP compartment with P7 and/or LTFPG (500 μM) in the AP transport solution (500 μL) and the BL compartment with the BL transport solution (700 μL). The plates were incubated at 37 °C, and the BL solutions were collected at different time points (i.e., 15, 30, 60, 90, and 120 min) and replaced with fresh solutions prewarmed at 37 °C. All BL solutions together with the AP solutions collected at the end of the transport experiment were stored at −80 °C prior to analysis. Three independent transport experiments were performed, each in duplicate.
Quantitative analysis of P7 in the AP and BL samples were carried out by ion trap mass spectrometry (MS) in multiple reaction monitoring (MRM) mode, monitoring two of the most intense diagnostic transitions, after optimization of the acquisition parameters, such as retention time, MS profile, and tandem mass spectrometry (MS/MS) fragmentation spectrum.[14],[15] All further details regarding liquid chromatography–tandem mass spectrometry (LC–MS/MS) operating conditions and method validations are described in the Supporting Information.
The metabolic degradation products deriving from the hydrolytic activity of brush border membrane peptidases were investigated by an untargeted approach (for further details, see the Supporting Information). […]

[3] = untargeted HPLC–Chip–MS/MS, × = detected
[4] = differentiated Caco-2, AP to BL, peptide alone, 500 μM in AP, 37 °C, AP pH 6.0, BL pH 7.4
[5] = differentiated Caco-2, AP to BL, peptide alone, 500 μM in AP, 37 °C, AP pH 6.0, BL pH 7.4, mean ± sd
[6] = differentiated Caco-2 on Transwell, AP to BL, peptide alone, 500 μM in AP, 37 °C, BL sampled 15–120 min, HPLC–Chip–MS/MS MRM, mean ± sd, three independent experiments
[7] = differentiated Caco-2, AP to BL, mixture with P3 and P5, each 500 μM in AP, 37 °C
[8] = differentiated Caco-2, AP to BL, mixture with P3 and P5, each 500 μM in AP, 37 °C, mean ± sd

Chain of DPP-IV (P27487 whole entry): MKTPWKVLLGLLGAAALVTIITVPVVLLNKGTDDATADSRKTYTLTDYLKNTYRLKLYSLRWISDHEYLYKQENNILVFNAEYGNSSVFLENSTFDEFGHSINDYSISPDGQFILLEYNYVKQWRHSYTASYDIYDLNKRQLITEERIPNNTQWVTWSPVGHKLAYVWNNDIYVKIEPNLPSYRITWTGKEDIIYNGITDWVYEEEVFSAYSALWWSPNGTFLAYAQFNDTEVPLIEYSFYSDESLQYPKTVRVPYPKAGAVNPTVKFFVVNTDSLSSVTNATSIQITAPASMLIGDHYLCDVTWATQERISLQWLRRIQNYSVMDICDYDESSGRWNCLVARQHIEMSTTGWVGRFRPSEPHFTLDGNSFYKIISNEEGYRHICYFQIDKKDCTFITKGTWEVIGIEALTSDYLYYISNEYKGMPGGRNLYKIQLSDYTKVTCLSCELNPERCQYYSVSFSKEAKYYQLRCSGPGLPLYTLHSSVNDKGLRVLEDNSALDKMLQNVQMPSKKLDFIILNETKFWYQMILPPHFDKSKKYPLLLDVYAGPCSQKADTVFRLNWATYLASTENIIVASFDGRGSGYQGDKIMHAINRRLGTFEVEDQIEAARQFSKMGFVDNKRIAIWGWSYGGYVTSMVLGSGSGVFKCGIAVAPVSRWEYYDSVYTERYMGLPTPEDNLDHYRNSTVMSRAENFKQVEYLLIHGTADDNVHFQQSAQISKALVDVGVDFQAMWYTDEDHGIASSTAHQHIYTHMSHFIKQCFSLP

detected at the AP side, P7 tested within a mixture [2, 3]	amount in the BL compartment after 60 min, peptide alone [2, 4] [nmol]	amount in the BL compartment after 60 min, peptide alone [2, 5] [µg]	lag period for transport, peptide alone ([2]; differentiated Caco-2, AP to BL, peptide alone, 500 μM in AP, AP pH 6.0, BL pH 7.4, 37 °C)	rate of transport, peptide alone [2, 6] [ng mL^–1 min^–1]	detected at the AP side, P7 tested as individual species (alone) ([2]; AP solutions of differentiated Caco-2 at the end of the transport experiment, untargeted HPLC–Chip–MS/MS, × = detected)	fold higher amount in BL when tested alone than in the mixture ([2]; after 60 min of incubation)	amount in the BL compartment after 60 min, P7 in the mixture [2, 7] [nmol]	amount in the BL compartment after 60 min, P7 in the mixture [2, 8] [µg]	absorbed amount after 2 h, P7 in the mixture [2, 7] [nmol]	absorbed amount after 2 h, P7 in the mixture [2, 8] [µg]	lag period for transport, P7 in a mixture ([2]; differentiated Caco-2, AP to BL, mixture with P3 and P5, each 500 μM in AP, AP pH 6.0, BL pH 7.4, 37 °C)	rate of transport, P7 in a mixture ([2]; differentiated Caco-2 on Transwell, AP to BL, mixture with P3 and P5, each 500 μM in AP, AP pH 6.0, BL pH 7.4, 37 °C, BL sampled 15–120 min, HPLC–Chip–MS/MS MRM, mean ± sd, three independent experiments) [ng mL^–1 min^–1]	Substance	hydrolysis of P7 by DPP-IV (formation of LTFPG) [1]	transport in the presence of wortmannin ([2]; mature Caco-2 cells, wortmannin, inhibitor of the transcellular passage)
×	0.412	0.22 ± 0.003	without a lag period	3.7 ± 0.8	–	–	–	–	–	–	–	–	LTFPG [LTFPG]	clearly detectable after 2 h of incubation	transported also in the presence of wortmannin
×	0.278	0.26 ± 0.02	–	4.2 ± 0.6	×	about 4 fold	0.064	0.06 ± 0.003	0.235	0.22 ± 0.5	27.7 min and 27 min	1.98 ± 0.21	LTFPGSAED [P7]	subjected to DPP-IV hydrolysis	–
